Measured values as given in the NIST ThermoML archive (doi:10.1021/je800664z).
Numbers after ± are expanded uncertainties.

Test: xn = mol fraction of the nth substance listed
Conditions: for surface tension liquid-gas: Capillary rise; for mass density / viscosity: 101 kPa, Liquid

C1COCO1 [1,3-dioxolane] + CC(C)O
Conditions	mass density, 288.15 K [kg/m3]	mass density, 298.15 K [kg/m3]	mass density, 308.15 K [kg/m3]	surface tension liquid-gas, 288.15 K [mN/m]	surface tension liquid-gas, 298.15 K [mN/m]	surface tension liquid-gas, 308.15 K [mN/m]	viscosity, 288.15 K [mPa·s]	viscosity, 298.15 K [mPa·s]	viscosity, 308.15 K [mPa·s]
x1 = 0.05	802.01 ± 0.47	793.33 ± 0.48	784.33 ± 0.49	21.98 ± 0.13	21.22 ± 0.13	20.48 ± 0.13	2.285 ± 0.037	1.69 ± 0.027	1.299 ± 0.021
x1 = 0.1	814.65 ± 0.45	805.66 ± 0.46	796.38 ± 0.48	22.23 ± 0.13	21.52 ± 0.13	20.8 ± 0.13	1.846 ± 0.03	1.429 ± 0.023	1.126 ± 0.018
x1 = 0.15	827.45 ± 0.43	818.26 ± 0.44	808.69 ± 0.46	22.53 ± 0.13	21.8 ± 0.13	21.1 ± 0.13	1.564 ± 0.025	1.237 ± 0.02	0.999 ± 0.017
x1 = 0.2	840.43 ± 0.41	831.03 ± 0.43	821.18 ± 0.44	22.85 ± 0.13	22.1 ± 0.13	21.42 ± 0.13	1.371 ± 0.022	1.099 ± 0.018	0.895 ± 0.015
x1 = 0.25	853.56 ± 0.39	843.97 ± 0.41	833.89 ± 0.42	23.2 ± 0.13	22.4 ± 0.13	21.7 ± 0.13	1.221 ± 0.02	0.992 ± 0.017	0.817 ± 0.014
x1 = 0.3001	866.86 ± 0.37	857.09 ± 0.39	846.77 ± 0.4	23.57 ± 0.13	22.75 ± 0.13	22 ± 0.13	1.105 ± 0.018	0.908 ± 0.016	0.756 ± 0.014
x1 = 0.35	880.33 ± 0.35	870.34 ± 0.37	859.8 ± 0.38	23.95 ± 0.13	23.12 ± 0.13	22.33 ± 0.13	1.012 ± 0.017	0.84 ± 0.015	0.706 ± 0.013
x1 = 0.4	893.96 ± 0.33	883.74 ± 0.35	873.01 ± 0.36	24.38 ± 0.13	23.5 ± 0.13	22.7 ± 0.13	0.934 ± 0.016	0.784 ± 0.014	0.667 ± 0.013
x1 = 0.45	907.75 ± 0.31	897.31 ± 0.33	886.41 ± 0.35	24.83 ± 0.13	23.93 ± 0.13	23.12 ± 0.13	0.874 ± 0.015	0.74 ± 0.013	0.637 ± 0.012
x1 = 0.5	921.7 ± 0.29	911.08 ± 0.31	899.98 ± 0.33	25.32 ± 0.13	24.42 ± 0.13	23.55 ± 0.13	0.823 ± 0.014	0.72 ± 0.013	0.609 ± 0.012
x1 = 0.55	935.82 ± 0.27	925.02 ± 0.29	913.73 ± 0.31	25.85 ± 0.14	24.92 ± 0.13	24.03 ± 0.13	0.779 ± 0.014	0.671 ± 0.013	0.586 ± 0.012
x1 = 0.6	950.11 ± 0.25	939.14 ± 0.27	927.66 ± 0.29	26.43 ± 0.14	25.48 ± 0.13	24.55 ± 0.13	0.745 ± 0.014	0.645 ± 0.012	0.568 ± 0.012
x1 = 0.65	964.58 ± 0.23	953.43 ± 0.25	941.79 ± 0.27	27.05 ± 0.14	26.1 ± 0.14	25.15 ± 0.13	0.719 ± 0.013	0.626 ± 0.012	0.555 ± 0.011
x1 = 0.7001	979.2 ± 0.21	967.87 ± 0.23	956.09 ± 0.25	27.75 ± 0.14	26.77 ± 0.14	25.8 ± 0.13	0.697 ± 0.013	0.611 ± 0.012	0.542 ± 0.011
x1 = 0.75	994.01 ± 0.19	982.51 ± 0.21	970.57 ± 0.23	28.57 ± 0.14	27.53 ± 0.14	26.5 ± 0.14	0.682 ± 0.013	0.599 ± 0.012	0.531 ± 0.011
x1 = 0.8	1009 ± 0.2	997.36 ± 0.19	985.26 ± 0.2	29.47 ± 0.14	28.38 ± 0.14	27.28 ± 0.14	0.671 ± 0.013	0.592 ± 0.012	0.525 ± 0.011
x1 = 0.85	1024.2 ± 0.22	1012.38 ± 0.2	1000.13 ± 0.18	30.5 ± 0.14	29.33 ± 0.14	28.1 ± 0.14	0.657 ± 0.013	0.587 ± 0.012	0.52 ± 0.011
x1 = 0.9	1039.61 ± 0.25	1027.67 ± 0.23	1015.21 ± 0.21	31.63 ± 0.15	30.37 ± 0.14	28.95 ± 0.14	0.636 ± 0.012	0.585 ± 0.012	0.519 ± 0.011
x1 = 0.95	1055.25 ± 0.27	1043.29 ± 0.25	1030.71 ± 0.23	32.95 ± 0.15	31.43 ± 0.15	29.82 ± 0.14	0.635 ± 0.012	0.587 ± 0.012	0.523 ± 0.011
x1 = 1	1071.24 ± 0.29	1059.29 ± 0.27	1046.85 ± 0.25	34.37 ± 0.15	32.55 ± 0.15	30.67 ± 0.14	0.667 ± 0.013	0.596 ± 0.012	0.535 ± 0.011
